The conditions of assay [1]: clinical use as therapeutic drug for pulmonary fibrosis; cited from earlier work.
Assay [2] deals with α-SMA expression in MRC5 cells. Description: inhibition of α-SMA expression in MRC5 cells, image screening method. It counts as cell-based. Particulars: Homo sapiens; MRC5, compound 10 μM, TGF-β1 5 ng/mL, 72 hours, relative to TGF-β1 alone; read-out: Inhibitory activity (α-SMA expression inhibition). In outline:
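MRC5 cells exposed to compound (10 μM) or DMSO with TGF-β1 (5 ng/mL) for 72 h, then fixed, permeabilised, blocked and immunostained for α-SMA (FITC) and GAPDH. Image-based quantitation; α-SMA level with compound plus TGF-β1 expressed relative to TGF-β1 alone.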

The values below come from patent US20260265189A1, “NOVEL COMPOUND, AND PHARMACEUTICAL COMPOSITION COMPRISING SAME AS ACTIVE INGREDIENT” (SAPIENSBIO INC., priority 2022, published 2026).

SMILES strings stand for the structures.

Consider `Cc1ccc(=O)n(-c2ccccc2)c1` [Pirfenidone], for which the lung function improvement result in assay [1] is listed as “about 10%”.

The term inhibition denotes the change of the read-out against control, counted positive when it falls. `O=C(N[C@@H]1CCNC1)N1CCN(C2CCCCC2)c2ccccc21` [Compound 104, (R)-4-cyclohexyl-N-(pyrrolidin-3-yl)-3,4-dihydroquinoxaline-1(2H)-carboxamide]: the inhibition at 10 µM in assay [2] lay in the range of 10 to 30%. Regarding `O=C(N1CCCC1)N1CCN(C2CCCCC2)c2ccccc21` [Compound 108, (4-cyclohexyl-3,4-dihydroquinoxalin-1(2H)-yl)(pyrrolidin-1-yl)methanone], the inhibition at 10 µM in assay [2] lay in the range of 30 to 50%.

As to `CC(C)CN1CC[C@@H](CNC(=O)N2CCN(c3ccc(F)cc3)c3ccccc32)C1` [Compound 60, (S)-4-(4-fluorophenyl)-N-((1-isobutylpyrrolidin-3-yl)methyl)-3,4-dihydroquinoxaline-1(2H)-carboxamide], the inhibition at 10 µM in assay [2] is 50 to 70%. With `CN1CCC(NC(=O)N2CCN(Cc3ccccc3F)c3ccccc32)CC1` [Compound 88, 4-(2-fluorobenzyl)-N-(1-methylpiperidin-4-yl)-3,4-dihydroquinoxaline-1(2H)-carboxamide], the inhibition at 10 µM in assay [2] lay in the range of 50 to 70%. Take `CN1CCN(C(=O)N2CCN(C3CCCCC3)c3ccccc32)CC1` [Compound 107, (4-cyclohexyl-3,4-dihydroquinoxalin-1(2H)-yl)(4-methylpiperazin-1-yl)methanone]: in assay [2], the inhibition at 10 µM fell in the range of 10 to 30%.

With `CC(C)N1CCC(NC(=O)N2CCN(c3ccc(F)cc3)c3cc(F)ccc32)CC1` [Compound 31, 6-fluoro-4-(4-fluorophenyl)-N-(1-isopropylpiperidin-4-yl)-3,4-dihydroquinoxaline-1(2H)-carboxamide], the inhibition at 10 µM in assay [2] was in the range of 50 to 70%.
